Values of other authors in patent publication US20160015711A1, “CALCIUM PTERIN-6-CARBOXYLATE (CaPTERIN-6-COOH) AS A NOVEL IMMUNO-THERAPEUTIC” (SanRx Pharmaceuticals, Inc., priority 2014, published 2016).

Conditions: pH <4

Nc1nc([O-])c2nccnc2n1.Nc1nc([O-])c2nccnc2n1.[Ca+2] [DCP, dipterinyl calcium pentahydrate]
stability under acidic conditions: breaks down to form CaPterin
